Experimental data published in paper PMC11420944, “Targeted Degradation of Protein Kinase A via a Stapled Peptide PROTAC” (ACS Chemical Biology, 2024).

Legend:
PKAc = biological target: T1, PKAc (Homo sapiens, UniProt P17612); test: PKAc degradation in cells, Western blot densitometry; assay type: cell-based; settings: MDA-MB-231 cells, n = 3
T1 construct: degrade native PKAc in cells, MDA-MB-231 cells were used; endogenous in cells; host or cells: MDA-MB-231 (ATCC HTB-26)
Excerpt: To determine whether StIP-TAC could successfully degrade native PKAc in cells, MDA-MB-231 cells were used. […] We hypothesized this lack of a statistically significant effect may be a result of the compound’s relatively large molecular weight (∼3 kDa) and potentially limited cellular permeability, a common limitation of PROTAC molecules.[37]−[40] […] Based on this study, we aimed to improve delivery of our compound using SAINT Protein. […] To confirm that StIP-TAC-mediated degradation of PKAc resulted from recruitment of the proteasome, we incubated cells with 10 μM StIP-TAC alongside 10 μM proteasomal inhibitor MG-132 and subsequently screened for PKAc protein levels.
Cell-based PROTAC activity assays. MDA-MB-231 cells were grown on 6-well tissue culture plates (BD Biosciences). Cells were serum-starved for 24 hours in serum-free RPMI with penicillin/streptomycin, glucose, and L-glutamine. StIP-TAC treatment was prepared with SAINT-Protein reagent according to manufacturer protocol (Synvolux) and added to cells at a final concentration of 10 µM for 5 hours. For phosphorylation studies, cells were additionally stimulated with 50 µM forskolin for 30 minutes before harvesting. For H89-treated cells, 50 μM H89 was added 30 minutes before stimulation with forskolin. For degradation studies, cells were co-treated with 10 μM MG-132 (Selleck Chemicals) alongside StIP-TAC and DMSO treatments for the duration of the 5-hour experiment. For studies examining the NAE-mediated activation of CRL, cells were co-treated with 6 μM MLN4924 (Cayman Chemical) alongside StIP-TAC for the duration of the 5-hour experiment. For studies examining potential effects of StIP-3 on PKAc protein levels, cells were treated with 10 μM StIP-3 with or without SAINT-Protein reagent for 5 hours. Cells were harvested in Laemmli sample buffer, boiled for 10 minutes and protein levels were analyzed via western blotting. For control experiments, cells were incubated for 5 hours with an equivalent volume of DMSO or SAINT-Protein to the above studies, with or without forskolin stimulation.
To assess PKA degradation, anti-PKAc (1:1000, BD Biosciences) and anti-GAPDH (1:1000, Proteintech) primary antibodies were used. To assess PKA substrate phosphorylation, anti-phospho serine/threonine PKA substrate (1:1000, Cell Signaling Technology) and anti-tubulin (1:1000, Cell Signaling Technology) primary antibodies were used. To assess phosphorylation of VASP, anti-phospho VASP (1:1000, Cell […]
Signaling Technology) and anti-GAPDH (0.5 μg/mL, DSHB) primary antibodies were used. Incubation with primary antibodies was followed by incubation with anti-mouse […]
(§1) Biosciences). Western blot fluorescence detection was performed using a LI-COR Odyssey Fc imaging system. Data analysis was performed using GraphPad Prism […]
Table S1. Peptide and PROTAC sequences, expected and observed masses determined via HPLC-MS. Asterisks (*) represent residues of (S)-2-(4-pentenyl)- […]
(1 picture or pasted object on this page, not shown here)
Figure S3: Western blots for PKA degradation. Experiments were performed in triplicate (n=3) in low passage number MDA-MB-231 cells (ATCC HTB-26). Following t = 24 hour starvation in serum-free RPMI media, cells were treated for t = 5 hours with DMSO, SAINT-Protein Lipid reagent alone, 10 µM StIP-TAC, or 10 µM StIP-TAC incubated with SAINT-Protein Lipid reagent per manufacturer instructions. […]

phospho VASP = test: VASP phosphorylation in forskolin-stimulated cells, Western blot; assay type: cell-based; settings: MDA-MB-231 cells, 10 µM, 5 h, 50 µM forskolin 30 min, n = 3
Description: (§2) Next, we sought to assess whether StIP-TAC could also downregulate PKAc signaling in cells. For this experiment, cells were treated with forskolin to stimulate PKAc activity. Cells were either treated with DMSO, the small molecule PKAc inhibitor H89, StIP-TAC alone, or StIP-TAC with SAINT protein (Figure 4; Figure S7). […] (Figure 4C,D). A known PKA substrate, vasodilator-stimulated phosphoprotein (VASP),[42] was also probed for PKA-mediated phosphorylation (Figure S8).
Cell-based PROTAC activity assays. MDA-MB-231 cells were grown on 6-well tissue culture plates (BD Biosciences). Cells were serum-starved for 24 hours in serum-free RPMI with penicillin/streptomycin, glucose, and L-glutamine. StIP-TAC treatment was prepared with SAINT-Protein reagent according to manufacturer protocol (Synvolux) and added to cells at a final concentration of 10 µM for 5 hours. For phosphorylation studies, cells were additionally stimulated with 50 µM forskolin for 30 minutes before harvesting. For H89-treated cells, 50 μM H89 was added 30 minutes before stimulation with forskolin. For degradation studies, cells were co-treated with 10 μM MG-132 (Selleck Chemicals) alongside StIP-TAC and DMSO treatments for the duration of the 5-hour experiment. […] Cells were harvested in Laemmli sample buffer, boiled for 10 minutes and protein levels were analyzed via western blotting. […]
Biosciences). Western blot fluorescence detection was performed using a LI-COR Odyssey Fc imaging system. […]
Table S1. Peptide and PROTAC sequences, expected and observed masses determined via HPLC-MS. […]
Figure S8: StIP-TAC inhibits phosphorylation of the PKA substrate VASP. […] (B) Densitometric quantification of Western blots […]
reduction in phosphorylated VASP in cells treated with H89 and StIP-TAC with SAINT Protein reagent. Quantification was performed via Li-COR Image Studio. **p=0.010; ***p<0.001; ns, not significant as assessed by one-way ANOVA and Bonferroni’s multiple comparisons test. […]

[1] = test system: phospho serine/threonine PKA substrate; test: PKA substrate phosphorylation in forskolin-stimulated cells, Western blot; assay type: cell-based; settings: MDA-MB-231 cells, 10 µM, 5 h, 50 µM forskolin 30 min, n = 3
Description: as §2
Cell-based PROTAC activity assays. MDA-MB-231 cells were grown on 6-well tissue culture plates (BD Biosciences). Cells were serum-starved for 24 hours in serum-free RPMI with penicillin/streptomycin, glucose, and L-glutamine. StIP-TAC treatment was prepared with SAINT-Protein reagent according to manufacturer protocol (Synvolux) and added to cells at a final concentration of 10 µM for 5 hours. For phosphorylation studies, cells were additionally stimulated with 50 µM forskolin for 30 minutes before harvesting. For H89-treated cells, 50 μM H89 was added 30 minutes before stimulation […]
with forskolin. […]
Cells were harvested in Laemmli sample buffer, boiled for 10 minutes and protein levels were analyzed via western blotting. For control experiments, cells were incubated for 5 hours with an equivalent volume of DMSO or SAINT-Protein to the above studies, with or without forskolin stimulation.
To assess PKA degradation, anti-PKAc (1:1000, BD Biosciences) and anti-GAPDH (1:1000, Proteintech) primary antibodies were used. To assess PKA substrate phosphorylation, anti-phospho serine/threonine PKA substrate (1:1000, Cell Signaling […]
Incubation with primary antibodies was followed by incubation with anti-mouse […]
as §1
Figure S7: Western blots for PKA substrate phosphorylation. Experiments were performed in triplicate (n=3) in low passage number MDA-MB-231 cells (ATCC HTB-26). Following t = 24 hour starvation in serum-free RPMI media, cells were treated for t = 5 hours with DMSO, SAINT-Protein Lipid reagent alone, 10 µM StIP-TAC, or 10 µM StIP-TAC incubated with SAINT-Protein Lipid reagent per manufacturer instructions. For forskolin-stimulated treatments, cells were incubated for 30 minutes with 50 µM forskolin […]
prior to harvesting in Laemmli sample buffer. For H89-inhibited treatments, cells were incubated for 30 minutes prior to forskolin stimulation with 50 µM H89. Lysates were run via SDS-PAGE and Western blotting performed anti-phospho serine/threonine PKA substrate (1:1000, Cell Signaling Technology) and anti-tubulin (1:1000, Cell Signaling Technology) primary antibodies.

Cereblon Ligand 1-PEG8-*TTY*DFIASGRTGRRNAI (sidechain bridge or staple) [StIP-TAC, StIP-3-derived stapled peptide conjugated to thalidomide-derived Cereblon Ligand 1 via a PEG-8 linker]
cell permeability (cells): no longer permeable
PKAc protein levels on co-treatment with NAE inhibitor MLN4924 (PKAc; 10 µM with SAINT Protein, plus 6 µM MLN4924, 5 h): rescued PKAc protein to baseline levels
PKAc protein levels on co-treatment with proteasomal inhibitor MG-132 (PKAc; 10 µM with SAINT Protein, plus 10 µM MG-132, 5 h): rescued PKAc protein to baseline levels
reduction of PKAc protein levels vs vehicle control (PKAc; 10 µM, 5 h, with SAINT Protein lipid reagent, normalized to GAPDH): approximately 50%
PKAc degradation, forskolin stimulated vs unstimulated (PKAc; 10 µM, 5 h, with or without 30 min 50 µM forskolin): no significant difference
PKAc protein levels vs vehicle control (PKAc; 10 µM, 5 h, without SAINT Protein lipid reagent, normalized to GAPDH): no significant reduction
VASP phosphorylation (phospho VASP; with SAINT-Protein): significant inhibition
VASP phosphorylation (phospho VASP; without SAINT Protein): did not result in a significant reduction
PKAc substrate phosphorylation ([1]; with SAINT Protein): significant reduction in substrate phosphorylation to near basal levels
phosphorylation of the approximately 55, 60, 80, and 100 kDa substrate bands ([1]; with SAINT Protein): statistically significant reduction
PKAc substrate phosphorylation ([1]; without SAINT Protein): did not yield a significant reduction
